Measurements taken from ChEMBL document CHEMBL5126653, “Targeted Degradation of Androgen Receptor for the Potential Treatment of Prostate Cancer” (ACS Med Chem Lett, 2022).

These compounds were tested against Protein cereblon/Androgen receptor (Homo sapiens) (UniProt P10275+Q96SW2) (assay: In vivo protac activity at CRBN/AR in human VCaP cells xenografted in CB17 mouse assessed as increase in Androgen receptor degradation at 10 mg/kg, po for 16 hrs by ELISA).
Type: functional, organism-based

Sequence of Protein cereblon/Androgen receptor (Homo sapiens) (P10275 whole entry, looked up): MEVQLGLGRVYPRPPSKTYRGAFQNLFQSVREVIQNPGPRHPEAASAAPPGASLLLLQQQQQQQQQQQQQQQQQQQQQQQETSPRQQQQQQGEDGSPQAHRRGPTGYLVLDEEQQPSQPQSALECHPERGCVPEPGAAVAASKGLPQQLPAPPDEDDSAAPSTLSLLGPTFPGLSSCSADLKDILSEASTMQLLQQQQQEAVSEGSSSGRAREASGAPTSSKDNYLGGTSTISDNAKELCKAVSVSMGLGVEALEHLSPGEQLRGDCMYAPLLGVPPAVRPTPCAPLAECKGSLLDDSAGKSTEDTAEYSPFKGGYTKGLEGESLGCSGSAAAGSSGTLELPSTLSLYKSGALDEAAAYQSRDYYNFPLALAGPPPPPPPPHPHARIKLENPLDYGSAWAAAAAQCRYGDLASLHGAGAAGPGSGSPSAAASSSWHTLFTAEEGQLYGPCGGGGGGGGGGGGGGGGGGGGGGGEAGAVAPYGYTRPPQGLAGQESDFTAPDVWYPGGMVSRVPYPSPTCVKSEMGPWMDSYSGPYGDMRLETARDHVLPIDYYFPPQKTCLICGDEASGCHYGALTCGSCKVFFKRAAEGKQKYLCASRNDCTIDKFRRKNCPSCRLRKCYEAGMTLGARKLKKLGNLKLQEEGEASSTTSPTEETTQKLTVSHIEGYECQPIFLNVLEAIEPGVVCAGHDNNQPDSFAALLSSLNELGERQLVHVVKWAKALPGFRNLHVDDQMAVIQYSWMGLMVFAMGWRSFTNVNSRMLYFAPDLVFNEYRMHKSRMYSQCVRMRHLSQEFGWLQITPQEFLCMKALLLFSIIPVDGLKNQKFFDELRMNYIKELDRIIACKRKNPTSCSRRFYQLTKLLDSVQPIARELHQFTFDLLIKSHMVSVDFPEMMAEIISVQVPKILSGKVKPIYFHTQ
Sequence of Protein cereblon/Androgen receptor (Homo sapiens) (Q96SW2 whole entry, looked up): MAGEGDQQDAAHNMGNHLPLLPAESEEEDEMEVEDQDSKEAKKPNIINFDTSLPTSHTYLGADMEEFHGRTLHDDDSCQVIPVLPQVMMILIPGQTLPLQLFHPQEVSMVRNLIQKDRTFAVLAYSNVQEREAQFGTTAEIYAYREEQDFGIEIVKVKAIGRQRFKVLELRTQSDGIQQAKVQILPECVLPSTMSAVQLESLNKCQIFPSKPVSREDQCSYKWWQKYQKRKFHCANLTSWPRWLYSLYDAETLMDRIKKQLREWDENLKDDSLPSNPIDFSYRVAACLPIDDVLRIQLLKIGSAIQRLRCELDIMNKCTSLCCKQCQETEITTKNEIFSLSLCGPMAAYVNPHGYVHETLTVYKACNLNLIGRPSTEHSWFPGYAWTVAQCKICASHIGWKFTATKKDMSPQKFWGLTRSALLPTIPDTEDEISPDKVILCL

Activity [%] | SMILES
< 1 | CC1(C)[C@H](NC(=O)c2ccc(N3CCN(CC4CN(c5ccc6c(c5)C(=O)N(C5CCC(=O)NC5=O)C6=O)C4)CC3)cc2)C(C)(C)[C@H]1Oc1ccc(C#N)c(Cl)c1 (stereo not given in full)
10 | CC1(C)[C@H](NC(=O)c2ccc(CCCCN3CCN(c4ccc5c(c4)C(=O)N(C4CCC(=O)NC4=O)C5=O)CC3)nc2)C(C)(C)[C@H]1Oc1ccc(C#N)c(Cl)c1 (stereo not given in full)
< 1 | CC1(C)[C@H](NC(=O)c2ccc(N3CCN(CCCCCOc4ccc5c(c4)C(=O)N(C4CCC(=O)NC4=O)C5=O)CC3)nc2)C(C)(C)[C@H]1Oc1ccc(C#N)c(Cl)c1 (stereo not given in full)
1 | CC1(C)[C@H](NC(=O)c2ccc(N3CCN(CC4CCN(c5ccc6c(c5)C(=O)N(C5CCC(=O)NC5=O)C6=O)CC4)CC3)cc2)C(C)(C)[C@H]1Oc1ccc(C#N)c(Cl)c1 (stereo not given in full)
1 | CC1(C)[C@H](NC(=O)c2ccc(C3CCC(CN4CCN(c5ccc6c(c5)C(=O)N(C5CCC(=O)NC5=O)C6=O)CC4)CC3)cc2)C(C)(C)[C@H]1Oc1ccc(C#N)c(Cl)c1 (stereo not given in full)
< 1 | CC1(C)[C@H](NC(=O)c2ccc(N3CCN(CCCOc4ccc5c(c4)C(=O)N(C4CCC(=O)NC4=O)C5=O)CC3)cc2)C(C)(C)[C@H]1Oc1ccc(C#N)c(Cl)c1 (stereo not given in full)
< 1 | CC1(C)[C@H](NC(=O)c2ccc(N3CCC(CN4CCN(c5ccc6c(c5)C(=O)N(C5CCC(=O)NC5=O)C6=O)CC4)CC3)nc2)C(C)(C)[C@H]1Oc1ccc(C#N)c(Cl)c1 (stereo not given in full)
1 | CC1(C)[C@H](NC(=O)c2ncc(N3CCN(CCCCCOc4ccc5c(c4)C(=O)N(C4CCC(=O)NC4=O)C5=O)CC3)cn2)C(C)(C)[C@H]1Oc1ccc(C#N)c(Cl)c1 (stereo not given in full)
< 1 | CC1(C)[C@H](NC(=O)c2cnc(N3CCN(CCCCCOc4ccc5c(c4)C(=O)N(C4CCC(=O)NC4=O)C5=O)CC3)nc2)C(C)(C)[C@H]1Oc1ccc(C#N)c(Cl)c1 (stereo not given in full)
< 1 | CC1(C)[C@H](NC(=O)c2cnc(N3CCC(CN4CCN(c5ccc6c(c5)C(=O)N(C5CCC(=O)NC5=O)C6=O)CC4)CC3)nc2)C(C)(C)[C@H]1Oc1ccc(C#N)c(Cl)c1 (stereo not given in full)
